Experimental data taken from patent US9594047B2, “Potentiometric sensors and method for measuring intermolecular interactions” (Universiteit Antwerpen, priority 2013, dated 2017).

Assays:
[1] = Potentiometric sensorgram of an oligonucleotide analyte; details: 10^−5 M injection
Excerpt: Coating materials such as gelatin are easily doped by proteins [see De Wael, K.; De Belder, S.; Van Vlierberghe, S.; Van Steenberge, G.; Dubruel, P. Talanta 82 (2010) 1980-1985] antibodies, bioparticles (viruses, bacteria, . . . ), DNA, and aptamers. Large biomolecules can be used as analyte (prey ligand) (second molecular species). From experience with oligonucleotides [Nagels, L. J.; Everaert, J.; Bohets, H.; Del Favero, J.; Goossens, D.; Robbens, J.; Pietraszkiewicz, M.; Pietraszkiewicz, O., Comb. Chem. High Throughput Screening 10 (2007) 555-559] it is known that these multiply charged molecules give very good potentiometric responses. For example, the 22-mer 5′-[…]-3′ yields a slope (S, equations 2 and 3) value of 38 mV per decade, which is much higher than that calculated by the Nernst equation (equation 2). This is due to the fact that equation 2 was derived for point charges, while an oligonucleotide is a multiply charged rodlike molecule. It is detected three times more sensitively (on a molar basis) than a small, well-responding anionic molecule such as maleic acid. […] This means that the described method can also be used to measure DNA/DNA interactions. Potentiometry also allows working with miniaturized electrode arrays (eventually with ion-sensitive field-effect transistor (ISFET) readout), which means that high-throughput measurements can be considered.

[2] = system: DA-specific aptamer (58 mer); assay: Potentiometric FIA sensorgram, gelatin B sensor with covalently linked DA-specific aptamer; assay type: binding; details: for Rmax response in mV: 10^−5M injection, coating Gelatin B + DA-specific aptamer; for change in sensitivity (Rmax) when aptamer is coupled to gelatin B: with versus without aptamer
Excerpt: (§1) [formula] Starting from the “association” part of the sensorgram, one can now plot dR/dt versus R. For a pseudo-first-order kinetics, this will yield a straight line with slope equal to slope=−(koncanalyte+koff) (12) Plotting this slope versus canalyte then yields a graph from which kon and koff can be calculated.
(§2) From kon and koff, Kassoc=kon/koff is obtained, from which Kdiss (=1/Kassoc) and the Gibbs free energy of interaction can be calculated (ΔG^0=−RT ln Kass). Kdiss is most frequently used term to express intermolecular interactions. This type of analysis was done for different electrode/analyte combinations. Examples were chosen so as to include examples where the immobilized component (in the coating layer of the sensor) includes large biomolecules (DNA).
(§3) The flow injection analysis (FIA) recordings were performed using an LC-10ADvp pump (Shimadzu Liquid Chromatography) and a Rheodyne 7125 six-port external sample injector (VICI, Houston, Tex.). A 1.00 mL sample loop was used to generate square concentration pulses for sensorgram recording in FIA conditions. […] The flow rate was 1.00 mL min^−1. Poiseuille peak broadening effects were kept to a minimum using short injector-detector connections (150 mm). To avoid such effects at the end of the square concentration pulse, the injector was switched from inject to load after 40 s (well before the sample loop volume was totally emptied).
The well-known ethyl-dimethyl-aminopropylcarbodiimide and n-hydroxy-succinimide (EDC-NHS) coupling procedure was used (with minor modifications) to bind the aminated aptamer covalently to the hydrogel, which contains carboxyl groups. After adding 20 μL of the coupling agents (15.32 mg of EDC and 2.32 mg of NHS dissolved in 100 μl of 10.0 mM MES buffer at pH 7.0) to the coated hydrogel for 2 h, 2×4 μL of the aptamer (10^−4M) was applied for 1 h. After evaporation for 2 h, at 4° C. the electrodes were kept in 10.0 mM MES running buffer, pH 7.0.
All chemicals were of analytical reagent grade. The FIA eluents were prepared daily by the dilution of a concentrated phosphoric acid solution or by dissolving HEPES, both obtained from Acros Organics (Filter Service NV, Eupen, Belgium). High-molecular-mass PVC was obtained from Janssen Chimica (Beerse, Belgium). The other membrane components were of the highest quality grade available from Fluka (Sigma-Aldrich, Bornem, Belgium). These include plasticizer TCPB, DOS, and the solvent tetrahydrofuran (THF). Type gelatin A (IEP (isoelectric point)=8.8, bloom strength 202), isolated from porcine skin by acid treatment, was obtained from Tessenderlo Chemie (Belgium). Promazine, lidocaine and tartaric acid were obtained from Sigma-Aldrich.
After checking the coupling of the aptamer to the biopolymer as described above, the electrodes were placed in a FIA potentiometric setup.
(§4) A R=10^mV/S−1 conversion was then plotted (see equation 4). […] Four electrodes were tested, each 3 injections.

Gelatin B = assay: Potentiometric FIA response on gelatin B-coated electrode without aptamer (negative control sensor); assay type: binding; details: for Rmax response in mV: 10^−5M injection, coating Gelatin B
Protocol: as §4

DA-specific aptamer = details: read-out: Kdiss determined colorimetrically; Zheng (2011); cited from earlier work
[3] = Potentiometric FIA sensorgram, linearization method, rubber phase (PVC) coated sensor; assay type: binding; details: for koff: from plot of slope versus canalyte (on phase kinetics); for kon: from plot of slope versus canalyte, eluent 5.0 mM H3PO4 pH 2.4
Excerpt: The model is based on the assumption that the rate determining phenomenon is the adsorption of analyte A (second molecular species) to the surface receptor sites Rsurface: A+Rsurface⇄ARsurface (5) Receptor sites are occupied by the analyte are designated as Roccupied. The rate of adsorption can be expressed as νon: […]
Differential equation 6 can be solved to yield equations 8 and 10. In these equations, Roccupied is replaced by R, the concentration-related response (10^mV/S−1), as both are linearly related (see above). Rmax is the value of R which is obtained at the plateau of the sensorgram: R(t)=Rmax(1−e^−k^obsd^t) (8) where kobsd=[…] (9) Equation 7 yields the well-known first-order exponential desorption formula: R(t)=Rmaxe^−k^off^t (10)
as §1, §2, §3
The eluent was 5.0 mM H3PO4 (pH 2.4) for the poly(vinyl chloride) (PVC)-based electrodes and 0.5 mM 4-(2-hydroxyethyl)-1-piperazine-ethanesulfonic acid (HEPES; pH 6.0) for the hydrogel electrodes (see the section “Potentiometric Electrode”). The column outlet was directed perpendicularly toward the sensitive membrane of the coated wire electrode in a “wall-jet” flow cell [see FIG. 1 and Bazylak, G.; Nagels, L. J. J. Pharm. Biomed. Anal. 32 (2003) 887-903]. The distance from the LC tubing outlet to the electrode was 0.100 mm unless otherwise stated.
The membrane potential was measured against an Orion 800500 Ross reference electrode (Ag/AgCl) using a high impedance (10^13Ω) home-made amplifier. The detection signals were recorded on a data station composed of a PC equipped with a 6013 NI DA converter and LabVIEW 7 (National Instruments, Austin, Tex.) based software. The overall RC time constant of the high-impedance amplifier plus data station was set to 0.200 s.
Electrodes with a composite substrate have the important property that the membrane coating and the composite are tightly mixed at the interface, and sensors constructed in this way show very good impedance characteristics (see Nagels, L; Bohets, H.; Jimidar, M. U.S. Pat. No. 7,857,962 B2). These characteristics were verified using impedance spectroscopy. The measurements were performed with an Autolab Metrohm PGSTAT 128N FRA instrument (frequency 1-100 kHz, amplitude 10 mV). A semicircle in the Nyquist plot was obtained if the electrode had good impedance characteristics. Discussions on such characteristics of potentiometric sensors are well described in Mattinen, U.; Rabiej, S.; Lewenstam, A.; Bobacka, J. Electrochim. Acta 56 (2011) 10683-10687; and Bobacka, J.; Ivaska, A.; Lewenstam, A. Chem. Rev. 108 (2008) 329-351. […]

[4] = cited from earlier work
[5] = system: gelatin A coating (collagen material); assay: Potentiometric FIA sensorgram, linearization method, gelatin A-coated sensor; assay type: binding, porcine
Excerpt: as §1, §2
as §3, with “To avoid such effects at the end of the square concentration pulse, the injector was switched from inject to load after 40 s (well before the sample loop volume was totally emptied).” left out

Row | Molecule | Rmax response in mV [2] [mV] | change in sensitivity (Rmax) when aptamer is coupled to gelatin B [2] | Rmax response in mV (Gelatin B) [mV] | Kassoc=kon/koff [3] [M⁻¹] | koff [3] [s⁻¹] | kon [3] [M⁻¹ s⁻¹] | sensitivity of gelatin B based sensors (Gelatin B) | also measured
1 | 5′-AAAATATCATCTTTGGTGTTTC-3′ (chemistry not given here) [22-mer oligonucleotide used as analyte] | – | – | – | – | – | – | – | koff ([1]; off phase): 0.032 s⁻¹; kobsd ([1]; on phase): 0.055 s⁻¹
2 | NCCc1ccc(O)c(O)c1 [Dopamine, dopamine] | 92.86 | very clear increase in Rmax | 9.46 | – | – | – | – | Kass [2]: 3.04e+07 M⁻¹; koff [2]: 0.0007 s⁻¹; kon [2]: 21200 M⁻¹ s⁻¹; signal (Rmax) with aptamer-containing electrodes versus electrodes without aptamer ([2]; four electrodes, each 3 injections): From five to ten times higher signals; Kd ([2]; mean of four electrodes, read-out: mean value of Kdiss): 1310 nM; Kd (DA-specific aptamer): 700 nM
3 | CCN(CC)CC(=O)Nc1c(C)cccc1C [Lidocaine, lidocaine] | 1.57 | no improvement in sensitivity | 2.88 | 275000 | 0.0717 | 19700 | quite insensitive | average value of koff ([3]; off phase, all curves at different concentrations): 0.0748 s⁻¹
4 | CN(C)CCCN1c2ccccc2Sc2ccccc21 [Promazine] | 2.44 | no improvement in sensitivity | 3.66 | 2.74e+06 | 0.0365 | 100000 | quite insensitive | log P [4]: 4.36
5 | CC(NCCc1ccc(O)cc1)C(O)c1ccc(O)cc1 (stereo not drawn) [Ritodrine, ritodrine] | 1.57 | no improvement in sensitivity | 1.83 | – | – | – | quite insensitive | –
6 | O=C(O)C(O)C(O)C(=O)O (stereo not drawn) [tartaric acid] | – | – | – | – | – | – | – | koff [5]: 0.0472 s⁻¹; kon ([5]; from plot of slope versus canalyte, 0.5 mM HEPES pH 6.0): 66700 M⁻¹ s⁻¹
